Experimental data published in patent US20210267992A1, “5-ACETAMIDOMETHYL-OXAZOLIDINONE DERIVATIVES FOR USE IN THE TREATMENT OF CANCER” (Varsity Pharmaceuticals Limited, priority 2018, published 2021).
“Also recorded” adds a separate entry of the source.

What was measured:
[1] = system: BRCA1 deficient ovarian cancer cells, UWB1.289; assay: BrdU proliferation assay, single drugs after cisplatin; type: cell-based; conditions: cisplatin 1 μM for 24 hours followed by the drug alone for 6 days, result in words
Protocol: (§1) Methods • Cell morphology, viability and proliferation rate was assessed by visual and counting method. • Day 0: Cells were split and around 1000 cells/well were seeded in normal complete media. • Day 1: Cisplatin was added at 1 μM to the test and controls wells. Untreated cells were left as control. • Day 2: medium containing cisplatin was discarded and new fresh media containing bromodeoxyuridine (BrdU) and the drugs at the concentrations shown in table 1, below, was added. • Day 6: medium was discarded, and cells fixed. BrdU assay was performed according to the manufacturer. • Controls comprised cells without BrdU (Blank), untreated cells (UN) and Cisplatin treated cells for 24 hours only (CIS). • All experiments were conducted in triplicate.
(§2) BrdU Proliferation Assay • After 6 days of incubation with drugs, the media was discarded, and cells were fixed for 30 minutes, at room temperature, with FixDenat Solution. • FixDenat Solution was then removed and substituted with Anti-BrdU-POD working solution for 2 hours at room temperature. • Plates were then washed 3 times with Washing buffer. • Substrate solution was added. • The reaction was stopped by adding H2SO4 and immediately read at 450 nm.
Data was analysed using Excel and Prism software. The average of the absorbances and the standard error were calculated using the technical triplicate for each condition.

UWB1.289 cell line = assay: BrdU proliferation assay, combinations of PARPis and ATR inhibitors after cisplatin; type: cell-based; conditions: for proliferation in combination with Aurothiomalate (ATM), compared with the gold complex alone: then Aurothiomalate (ATM) plus the labelled drug for 6 days; for proliferation in combination with auranofin, compared with the gold complex alone: then auranofin plus the labelled drug for 6 days
Protocol: as §1, §2
The methods were the same as described in example 1 except that the new fresh media added on day 2 contained bromodeoxyuridine (BrdU) and the drugs at the concentrations shown in table 2, below. All possible combinations of concentrations for compounds A and B were tested.

[2] = system: MDA-MB-436 (BRCA1 mutation) breast cancer cell xenograft; assay: MDA-MB-436 (BRCA1 mutation) breast cancer cell xenograft experiment; type: in vivo; conditions: mice, 100 mg/kg BID orally, MDA-MB-436 xenograft
Protocol: The MDA-MB-436 tumour cell line was maintained in vitro as monolayer culture in DMEM medium modified supplemented with 10% heat inactivated foetal bovine serum at 37° C. in an atmosphere of 5% CO2 in air. The tumour cells were routinely sub-cultured once a week by trypsin-EDTA treatment, not to exceed 4-5 passages. The cells growing in an exponential growth phase were harvested and counted for tumour inoculation.
All mice were inoculated subcutaneously on the right flank with MDA-MB-436 tumour cells (1×10^7) in 0.1 ml of DMEM with Matrigel mixture (1:1 ratio) for tumour development. The treatment started when the mean tumour size reached is approximately 100-150 mm^3. Mice were then be assigned to groups such that the mean tumour volume is the same for each treatment group. The treatments were administered to the tumour-bearing mice orally at 12 hour intervals.
560 mg linezolid was dissolved in 1.4 ml ethanol and 12.6 ml PEG400. The solution was vortexed and sonicated with high energy ultrasonic probe to get a uniform solution. The resultant solution was used for 1 day.
The measurement of tumour size was conducted twice weekly with a calliper and recorded. The tumour volume (mm3) was estimated using the formula: TV=a×b^2/2, where “a” and “b” are long and short diameters of a tumour, respectively.

[3] = UWB1.289, cisplatin 1 μM 24 hours, result in words

Compound: OC[C@H]1O[C@H]([S-])[C@H](O)[C@@H](O)[C@@H]1O.[Au+] [ATG, Aurothioglucose]
- reduction of proliferation of the cancer cells (BrdU absorbance) [1]: effectively reduce proliferation

Compound: O=C(O)CC([S-])C(=O)O.[Au+] (stereo not shown) [ATM, Aurothiomalate]
- reduction of proliferation of the cancer cells (BrdU absorbance) [1]: effectively reduce proliferation

Compound: C[C@@H]1COCCN1c1cc(C2([S@](C)(=N)=O)CC2)nc(-c2cc[nH]c3nccc2-3)n1 [AZD, AZD6738]
- proliferation in combination with Aurothiomalate (ATM), compared with the gold complex alone (UWB1.289 cell line; [3]): particularly marked improvement over the gold complexes when used alone
- proliferation in combination with auranofin, compared with the gold complex alone (UWB1.289 cell line; [3]): particularly marked improvement over the gold complexes when used alone
- proliferation in combination with olaparib, compared with olaparib alone (UWB1.289 cell line; UWB1.289, cisplatin 1 μM 24 hours, then olaparib plus the labelled drug for 6 days, result in words): further decreased proliferation when compared to the degree of proliferation observed for olaparib alone

Compound: O=C(c1cc(Cc2n[nH]c(=O)c3ccccc23)ccc1F)N1CCN(C(=O)C2CC2)CC1 [Olaparib]
- reduction of proliferation of the cancer cells (BrdU absorbance) [1]: effectively reduce proliferation

Compound: CC(=O)OC[C@H]1O[C@@H]([S-])[C@H](OC(C)=O)[C@@H](OC(C)=O)[C@@H]1OC(C)=O.CCP(CC)CC.[Au+] [auranofin]
- reduction of proliferation of the cancer cells (BrdU absorbance) [1]: effectively reduce proliferation

Compound: CC(=O)NC[C@H]1CN(c2ccc(N3CCOCC3)c(F)c2)C(=O)O1 [linezolid]
- proliferation in combination with Aurothiomalate (ATM), compared with the gold complex alone (UWB1.289 cell line; [3]): particularly marked improvement over the gold complexes when used alone; also recorded: particularly noticeable synergistic effect
- proliferation in combination with auranofin, compared with the gold complex alone (UWB1.289 cell line; [3]): particularly marked improvement over the gold complexes when used alone
- synergistic effect on proliferation when used with a PARPi (UWB1.289 cell line; UWB1.289, combination with a PARPi, result in words): synergistic effect
- percentage proliferation (UWB1.289 cell line; UWB1.289, linezolid 100 nM together with Aurothiomalate (ATM) 30 nM, after cisplatin 1 μM 24 hours): 2%
- proliferation reduction compared with AZD6738 (UWB1.289 cell line; inventors' conclusion, result in words): equivalent to proliferation reduction achieved by AZD6738
- reduced tumour size compared to the control group [2]: 38%
- reduction of proliferation of the cancer cells (BrdU absorbance) [1]: reduce proliferation of cancer cells when used alone

Compound: NC(=O)c1cccc2cn(-c3ccc([C@@H]4CCCNC4)cc3)nc12 [niraparib]
- reduction of proliferation of the cancer cells (BrdU absorbance) [1]: effectively reduce proliferation

Compound: CNCc1ccc(-c2[nH]c3cc(F)cc4c3c2CCNC4=O)cc1 [rucaparib]
- reduction of proliferation of the cancer cells (BrdU absorbance) [1]: effectively reduce proliferation
